Values of other authors in publication PMC4962924 (Chemistry (Weinheim an der Bergstrasse, Germany), 2016).
pIC50: −log10 of the molar value.

System: Hsp90
Details: natural product C-terminal inhibitors; ref [25],[26]

Compound | pIC50
CO[C@H]1[C@H](OC(=O)c2ccc(C)[nH]2)[C@H](O)[C@@H](Oc2ccc3c(O)c(NC(=O)c4c[nH]c(C(=O)Nc5c(O)c6ccc(O[C@H]7OC(C)(C)[C@@H](OC)[C@H](OC(=O)c8ccc(C)[nH]8)[C@@H]7O)c(C)c6oc5=O)c4C)c(=O)oc3c2C)OC1(C)C [coumermycin A1] | 4.15
